Test results reported in patent US10954549B2, “Detection and classification of an anticoagulant using a clotting assay” (Haemonetics Corporation, priority 2014, dated 2021).

Assays:
[1] = cited from earlier work
[2] = tested on: citrated whole blood; experiment: RapidTEG (rTEG) test of blood spiked with anticoagulant; type: biochemical, human
From the text: (§1) The TEG clotting assay was used to determine if low, normal, and high doses of dabigatran, rivaroxaban, and apixaban could be detected in blood spiked with these compounds. Three oral anticoagulants (OAC), namely dabigatran, rivaroxaban, and apixaban, were spiked into blood obtained from 14 healthy volunteer human donors. For each OAC tested, citrated blood from three donors was spiked with three different concentrations of the active drug (i.e., the compound). The spiked blood samples and control samples spiked with diluent were tested with the TEG® 5000 Thrombelastograph® Hemostasis Analyzer (Haemonetics Corporation, Braintree, Mass., USA) using the Kaolin and RapidTEG® reagents (Haemonetics). Each sample was run in triplicate. All samples were tested with and without ecarin (purchased from Enzyme Research Laboratories, South Bend, IN). This study was IRB approved and all donors were over 18 and signed informed consent forms.
The RapidTEG (rTEG) test incorporated both tissue factor and kaolin to generate the conventional kaolin parameters as well as the TEG-ACT parameter, which is measured in seconds. The TEG-ACT is equivalent to the Activated Clotting Time (see Chavez J. J. et al., Anesth. Analg. 99:1290-1294, 2004) and has a normal range of 86 to 118 seconds. A prolonged TEG-ACT time indicates slower clot formation. In addition, velocity curves derived from the above mentioned kaolin and rTEG tests were plotted using TEG software. These curves represent the speed of clot propagation (MRTG, Maximum Rate of Thrombus Generation; and TMRTG, Time to Maximum Rate of Thrombus Generation) (see FIG. 3B).
For the RapidTEG (rTEG) test, the reagent was reconstituted with 20 μL diluent water, and allowed to stand for 5 minutes per manufacturer instructions. Ten μL of this reconstituted reagent was added to the TEG cup with 20 μl 0.2M CaCl2 for recalcification.
(§2) 340 μL of the citrated blood sample was added to the cup with these two reagents, and the contents of the cup were mixed 3 times by drawing the contents of the cup up into the pipette and redispensing it into the cup. The test was started immediately after mixing and allowed to run until the MA parameter had defined. The rTEG with ecarin test was performed as the rTEG test above, using 20 μL of an ecarin/CaCl2 solution (0.16M CaCl2; 19EU/mL ecarin).

[3] = tested on: citrated whole blood; experiment: rTEG with ecarin test of spiked blood; type: biochemical, human
From the text: as §1, §2

[4] = tested on: citrated whole blood; experiment: TEG Kaolin test of blood spiked with anticoagulant; type: biochemical, human
From the text: as §1
Dabigatran stock was prepared from the active dabigatran moiety (Alsachim, France) by dissolution in 0.1M HCl and further dilution in 1:1 DMSO:H20. […] Tubes of citrated blood were spiked with this dabigatran stock to create final concentrations of 500, 200, and 50 ng/mL of citrated whole blood.
Rivaroxaban stock was prepared by agitation of a 20 mg Xarelto tablet (Jannsen, Titusville, N.J.) in a 1:1 DMSO: H20 solution, which was diluted to a final concentration of 20 ng/uL rivaroxaban in 1:1 DMSO:H20. Tubes of citrated blood were spiked with this rivaroxaban stock to create final concentrations of 500, 89, and 22 ng/mL in citrated whole blood. […] Apixaban stock was prepared in a similar manner from a 2.5 mg Eliquis tablet (Bristol-Myers Squibb, New York, N.Y.), with final concentrations of 1000, 500, and 250 ng/mL in whole blood. Apixaban is approved for prevention of VTE in elective hip or knee replacement surgery (2.5 mg BID) and for prevention of stroke and systemic embolism in patients with non-valvular AF (5 mg BID) (see Bristol-Myers SP, EEIG. apixaban summary of product characteristics). […] Control samples, prepared for each tested drug, included a solvent control containing only citrated blood and the diluent used to dilute the drug stock, and an unadulterated citrate blood tube.
Testing was performed on TEG-5000 analyzers (Haemonetics Corp., Braintree, Mass., USA) using Kaolin vials, 0.2M CaCl2, RapidTEG (rTEG) vials, diluent water, and disposable clear cups and pins provided by the manufacturer (Haemonetics, Braintree, Mass.), and ecarin (Enzyme Research Laboratories, South Bend, Ind.). All testing was performed in triplicate at each dose, and allowed to continue until the MA (maximum amplitude) parameter defined. The various components of the TEG tracing are depicted in FIG. 3A. The Kaolin test generates an R parameter, which is measured in minutes, and is the time elapsed from the initiation of the test until the point where the onset of clotting provides enough resistance to produce a 2 mm amplitude reading on the TEG tracing. This parameter represents the initiation phase of coagulation related to the function of enzymatic clotting factors. The R parameter has a normal range of 5 to 10 min for kaolin. A prolonged R time indicates slower clot formation. K is a measurement of the time interval from the split point to the point where fibrin cross-linking provides enough clot resistance to produce a 20 mm amplitude reading. The α angle is the angle formed by the slope of a tangent line traced from the R to the K time and a central line measured in degrees. K time and the α angle denote the rate at which the clot strengthens, and is representative of thrombin's cleaving of the available fibrinogen into fibrin. The MA indicates the point at which clot strength reaches its maximum amplitude, measured in millimeters on the TEG tracing, and reflects the end result of maximal platelet-fibrin interaction via the GPIIb-IIIa receptors (see Khurana S et al., J Lab Clin Med. 130:401-411, 1997). […]

[5] = tested on: blood from healthy volunteers; experiment: Thromboelastography R time of spiked blood in the presence of the FXa reagent; type: biochemical, human; settings: in vitro spiking, increasing concentrations
Experimental: Blood from healthy volunteers known not to be taking any oral anticoagulant and without any other significant health issues are analyzed using the FXa or the Ecarin reagent in a TEG® hemostasis analyzer. The FXa reagent (i.e., the Factor Xa reagent) is used to detect the presence (or absence) of an anticoagulant in the blood component being tested. In absence of any oral anticoagulant, the FXa reagent will accelerate the clotting process and result in a very short R-time. In presence of direct thrombin inhibitors and/or anti-Factor Xa anticoagulant(s), the process is slowed down and will cause elongation of the R-time. This difference in R-time is utilized to detect the presence of the oral anticoagulant. The R-time generated from multiple donors was used to construct a reference range. Blood was spiked with either direct thrombin inhibitors or anti-Xa(s) at different concentrations and analyzed using the FXa reagent or the Ecarin reagent. The drug concentrations chosen represent the published therapeutic ranges for these two classes of drugs. This assay was repeated in multiple donors to account for possible donor variations.

[6] = tested on: citrated whole blood; experiment: TEG kaolin with ecarin test of spiked blood; type: biochemical, human
From the text: as §1
For the kaolin test, 1 mL of citrated blood sample was mixed with kaolin and 340 microliters (μL) of this blood was added to a TEG cup containing 20 μL of 0.2M CaCl2 for recalcification. The kaolin with ecarin test was performed in a similar fashion, using 20 μL of an ecarin/CaCl2 solution (0.16 M CaCl2; 19 EU/mL ecarin).
Ecarin is derived from the venom of the saw-scaled viper, Echis carinatus. Ecarin activates prothrombin (the precursor of thrombin—see FIG. 5). This activation of prothrombin by ecarin produces meizothrombin, a prothrombin-thrombin intermediate which has a low level of procoagulant enzymatic activity.
Healthy human volunteers (who are not being administered any anticoagulant), donated blood. Following donation, the blood collected from the donors (which was added to citrate to prevent clotting) was divided into portions, and portions of the blood were spiked with either nothing, dabigatran, or rivaroxaban. The portions were then assayed using thromboelastography, including assays performed in the presence of ecarin.

[7] = tested on: porcine plasma; experiment: TEG 6S DTI channel R-time, porcine experimental trauma model; type: in vivo
Experimental: The TEG®6S system (Haemonetics Corp., Braintree, Mass.) is based on viscoelasticity measurements using resonance frequency and disposable multi-channel microfluidic cartridges. Blood and plasma from healthy volunteers were spiked with dabigatran in the therapeutic range (in increasing concentrations) and tested with an OAC cartridge with an ecarin based, direct thrombin inhibitor (DTI) channel. This channel was also evaluated with porcine plasma from an experimental trauma model (n=6) where dabigatran levels were measured with dilute TT (Hemoclot®). TEG 6s R-time (reaction time) was correlated to the drug levels.

COc1ccc(-n2nc(C(N)=O)c3c2C(=O)N(c2ccc(N4CCCCC4=O)cc2)CC3)cc1 [apixaban, Apixaban]
half-lives compared ([1]; in vivo): shorter half-lives than dabigatran | Cmax ([1]; oral dose of 20 mg): 460 ng/mL | increased half-life ([1]; patients with severe renal impairment compared to healthy volunteers): up to 44% | K, α and MRTG parameters versus control or between studied concentrations [2]: did not show any statistical difference | TMRTG parameter sensitivity to presence of drug [2]: not | MA values versus control ([2]; all studied concentrations): did not change | TEG ACT parameter versus control group ([2]; all tested concentrations (except rivaroxaban 22 ng/mL)): significantly different | ACT time versus non-spiked blood sample ([2]; medium and higher concentrations): significantly higher | TEG-ACT times on addition of ecarin to the RapidTEG test [3]: significantly decreases | RapidTEG α angle when ecarin was added ([3]; any of the studied concentrations): did not change | RapidTEG K values when ecarin was added ([3]; highest and lowest concentrations): significantly decreased | MA versus control group ([4]; 250 ng/mL, still within normal range): significantly different from the control group | R time versus non-spiked blood sample ([4]; highest concentration tested): significantly higher | R, K, α, and MRTG parameters, statistical significance versus control ([4]; three concentrations per drug, Example 1): able to detect the presence of all tested concentrations | R-time compared to the reference range, FXa reagent [5]: dose dependent elongation of the R-time | R time in the presence versus absence of ecarin ([6]; FIGS. 8A-8C): equivalent and significant shortening of R time | MA values with ecarin relative to samples run without ecarin ([6]; kaolin test): statistically different | R, K and TMRTG values on addition of ecarin to the kaolin test ([6]; treated and control groups): significant decrease | α and MRTG values on addition of ecarin to the kaolin test ([6]; treated and control groups): significant increase

B1: idarucizumab: reversal agent that reverses the anticoagulant effect of dabigatran (Boehringer Ingelheim) (antibody, chains of the INN, looked up, V domains shown)
VH: QVQLQESGPGLVKPSETLSLTCTVSGFSLTSYIVDWIRQPPGKGLEWIGVIWAGGSTGYNSALRSRVSITKDTSKNQFSLKLSSVTAADTAVYYCASAAYYSYYNYDGFAYWGQGTLVTVSS
VL: DVVMTQSPLSLPVTLGQPASISCKSSQSLLYTDGKTYLYWFLQRPGQSPRRLIYLVSKLDSGVPDRFSGSGSGTDFTLKISRVEAEDVGVYYCLQSTHFPHTFGGGTKVEIK
R-time after administration of the reversal agent ([7]; after dabigatran, trauma model, baseline 3.4±0.6 min): 3.6 ± 0.6 min | R time upon administration of the reversal agent ([7]; five separate swine plasma samples, FIG. 16): returned to baseline
